Test results from patent publication US6191124A, “Methanol derivatives for treatment of retroviral infections especially HIV infections” (priority 1997, dated 2001).

Legend:
[1] = test system: HIV infection / AIDS; conditions: cited from earlier work
[2] = test system: viral reverse transcriptase; conditions: cited from earlier work
[3] = target: T1, HIV-1 protease (Human immunodeficiency virus type 1 group M subtype B, UniProt P04585); assay: HIV protease screening assay (fluorescently labeled biotinylated substrate, streptavidin beads), percent inhibition; type: biochemical
Description: The HIV protease screening assay is based on fluorescently labeled substrate which can be resolved from nonlabeled cleavage product using special beads coated with streptavidin. The substrate is biotinylated at the amino terminal arginine and fluorescently labeled with fluorescein isothiocynate (FITC) at the carboxyl terminal lysine. This assay has been employed to detect novel, nonpeptidic inhibitors of HIV-1 protease. Substrate (20 μl of 0.2 μM), sample (10 μl of desired concentration), and enzyme (10 μl of 0.1 μM) are added to a 96 well pandex plate. The assay is run in 0.1 M sodium acetate buffer at pH 5.5 in the presence of 1.0 M sodium chloride and 0.05% NP-40 with incubated in the dark for one hour at room temperature. Strepavidin coated polystyrene beads {40 μl of 0.1% (w/v)} are added and the plate is incubated in the dark for an additional half hour. The labeled cleavage product is separated from the unreacted substrate via filtration and is read on the Idexx screen machine. The data are analyzed by appropriate computer algorithms to ascertain percent inhibition values.

[4] = target: T1, HIV-1 protease; assay: Determination of Ki values, HIV-1 protease; type: biochemical; conditions: Table 1; read-out: Ki
Description: Determination of Ki values utilizes the same materials and equipment employed for percent inhibition studies. Two-fold serial dilutions are made for a given inhibitor from 2, 3 or 4 starting concentrations with a total of 24, 36 or 48 individual inhibitor concentrations. These dilutions are performed utilizing the BioMek robotics system. The assay consists of 10 μL or 40 nM HIV-1 protease, 10 μL of the various inhibitor concentrations, and 20 μL of 200 μM substrate (40 μL total). The reaction is allowed to proceed for 90 min at room temperature, terminated with 40 μL of avidin beads and processed (supra vide). An inhibitor with a known Ki is run in parallel to verify the validity of the assay. The data is processed utilizing a computer program employing a nonlinear least square analysis of the data to generate the Ki values.

[5] = test system: HIV-1IIIB; assay: HIV-1IIIB replication in human T-cell line H9 (p24 core antigen ELISA); type: cell-based; conditions: human T-cell lines, e.g., H9, infected with HIV-1IIIB
Description: Several compounds of the present invention, such as 2,3-dimethyl-[…]-(2-phenylethyl)imidazo[2,1-b]thiazole-5-methanol were tested in known human cell lines, such as human T-cell lines, e.g., H9, which were infected with HIV-1IIIB. […] The H9 cell line was originally derived from the peripheral blood of a human lymphoma patient and extensively cloned so that the cells were highly susceptible to HIV infection. Virus-free H9 cells were maintained in a humidified 5% CO2 atmosphere at 37° C. in RPMI Complete (RC) medium, which was composed of RPMI 1640 supplemented with 10% heat-inactivated fetal calf serum (FCS), 10 mM Hepes, 2 mM L-glutamine, 100 μg/ml streptomycin, and 100 U/ml penicillin. H9 cultures were split 1:5 twice weekly for a maximum 12-15 times. […]
HIVIIIb 's ability to replicate efficiently in human T lymphoblastoid cell lines made this strain of HIV the logical choice for protease inhibitor screen. […] The titer, measured at the 50% Tissue Culture Infectious Dose (TCID50), was determined by the Reed-Muench method of statistical analysis to determine the 50% infectivity endpoint.
The standard acute infectivity assay for the evaluation of the inhibitors of HIV protease was performed in 96 well microplates. […] The amount of HIV p24 core antigen was quantified with an ELISA procedure by following the manufacturers directions (Coulter Diagnostics). […]

[6] = in vivo; cited from earlier work
[7] = test system: HIV; conditions: cited from earlier work
[8] = test system: hepatic glycolysis; conditions: cited from earlier work

## Cc1cn([C@H]2C[C@H](N=[N+]=[N-])[C@@H](CO)O2)c(=O)[nH]c1=O [AZT, 3'-azido-3'-deoxy-thymidine]
[1]
  decrease of mortality and frequency of opportunistic infections: shown to decrease the morality and frequency of opportunistic infections associated with AIDS
[2]
  inhibition of viral reverse transcriptase: known inhibitor of viral reverse transcriptase

## Cc1sc2ncc(C(O)CCc3ccccc3)n2c1C (stereo not drawn) [Example 11, 2,3-Dimethyl-α-(2-phenylethyl)imidazo[2,1-b]thiazole-5-methanol]
[3]; 1.1-1.3 μM (Table 1)
  % Protease Inhibition: 96%
[3]; 3.3-3.7 μM (Table 1)
  % Protease Inhibition: 109%
[3]; read-out: % Protease Inhibition
  inhibition at 10 µM: 112%
[4]
  Ki: 120 nM
[5]
  inhibition of retroviral replication: found to inhibit retroviral replication

## O=c1[nH]cnc2c1ncn2[C@H]1CC[C@@H](CO)O1 [ddI]
[6]
  limiting toxicity: peripheral neuropathy and pancreatitis
[7]
  activity against HIV in vitro: potent activity against HIV in vitro
[8]
  stimulation of hepatic glycolysis: shown to stimulate hepatic glycolysis leading to irreversible liver damage
